According to EP2266622A2, “Prodrugs containing novel bio-cleavable linkers” (Piramal Life Sciences Limited, priority 2004, dated 2006):
Entries after “also recorded” stand apart in the source; their conditions may differ. Marks after values point to notes of the source that are not given here.

Legend:
MES-induced seizures [1] = experiment: Test 1: Maximal Electroshock Test (MES), mice i.p.; assay type: in vivo; settings: for MES: class symbol = dose
Method: (§1) Most of the prodrugs and mutual prodrugs of anticonvulsants described in this invention were evaluated at National Institute of Neurological Disorders and Stroke (NINDS), National Institute of Health (NIH), under their Antiepileptic Screening Program (ASP).
(§2) Test 1 is an initial screening for anticonvulsant activity in the Maximal Electroshock Test (MES) and Subcutaneous Metrazol Seizure Threshold Test (scMET) models combined with an initial assessment of toxicity (TOX) in mice via i.p. injection (see further explanation below). The data for each condition is presented as N/F, where N = number of animals protected from seizure and F = number of animals tested. For test of toxicity, N = number of animals displaying toxic effects and F = number of animals tested. Any deaths occurring during the test were recorded.
(§3) Maximal Electroshock Test (MES): The MES is a model for generalized tonic-clonic seizure and provides an indication of a compound's ability to prevent seizure spread when all neuronal circuits in the brain are maximally active. These seizures are highly reproducible and electro-physiologically consistent with human seizures. For all tests based on MES convulsions, 60 Hz of alternating current (50 mA in mice) is delivered for […] by corneal electrodes, which have been primed with an electrolyte solution containing an anesthetic agent (0.5% tetracaine hydrochloride). Mice were tested at various intervals following doses of 30, 100 and 300 mg/kg of test compound given by i.p. injection of a volume of 0.01 mL/g. Other doses can be used if indicated by previously known pharmacology. An animal is considered "protected" from MES-induced seizures upon abolition of the hind-limb tonic extensor component of the seizure.

clonic seizures = experiment: Test 1: Subcutaneous Metrazol Seizure Threshold Test (scMET), mice i.p.; assay type: in vivo; settings: for ScMET (number of animal protected/number of animal tested): 300 mg/kg (+); for ScMET: class symbol = dose
Method: as §1, §2
Subcutaneous Metrazol Seizure Threshold Test (scMET): Subcutaneous injection of the convulsant metrazol produces clonic seizures in laboratory animals. […] Animals were pretreated with various doses of the test compound given by i.p. injection. At the previously determined Time to Peak Effect (TPE) of the test compound, the dose of metrazol which will produce convulsions in 97% of animals (CD97: 85 mg/kg in mice) was injected into a loose fold of skin in the midline of the neck. The animals were placed in isolation cages to minimize stress and observed for the next 30 minutes for the presence or absence of a seizure. An episode of clonic spasms, approximately […], of the fore and/or hind limbs, jaws, or vibrissae is taken as the end point.

[2] = system: minimal muscular or neurological impairment; experiment: Test 1: Acute toxicity, minimal motor impairment (rotorod), mice i.p.; assay type: in vivo; settings: for Rotorod Toxicity: class symbol = dose; for Rotorod Toxicity (number of animals exhibiting toxicity/number of animals tested): 300 mg/kg (+)
Method: as §1, §2

MES-induced seizures [3] = experiment: Test 2: MES, rats p.o.; assay type: in vivo
Source text: as §3
(§4) Rats received test compounds orally.

Neurological toxicity = experiment: Test 2: neurological toxicity, rats p.o.; assay type: in vivo; settings: 30 mg/kg
Source text: as §4

[4] = 100 mg/kg (++), 2 hours after dosing
[5] = at 2 hours after dosing (footnote h)

SMILES | activity in MES (Test 1, in words) (MES-induced seizures [1]) | MES (number of animal protected/number of animal tested) (MES-induced seizures [1]; 100 mg/kg (++), 4.0 h) | MES (MES-induced seizures [1]; 0.5 h) | MES (MES-induced seizures [1]; 4.0 h) | ScMET (clonic seizures; 0.5 h) | toxicity (Test 1, in words) [2] | Rotorod Toxicity ([2]; 0.5 h) | Rotorod Toxicity ([2]; 4.0 h) | MES (number of animal protected/number of animal tested) (MES-induced seizures [3]; 30 mg/kg, 0.50 h) | MES (number of animal protected/number of animal tested) (MES-induced seizures [3]; 30 mg/kg, 1.00 h) | MES (number of animal protected/number of animal tested) (MES-induced seizures [3]; 30 mg/kg, 2.00 h) | MES (number of animal protected/number of animal tested) (MES-induced seizures [3]; 30 mg/kg, 4.00 h) | ScMET (clonic seizures; 4.0 h) | Rotorod Toxicity (number of animals exhibiting toxicity/number of animals tested) ([2]; 0.5 h) | MES (number of animal protected/number of animal tested) (MES-induced seizures [1]; 300 mg/kg (+), 0.5 h) | MES (number of animal protected/number of animal tested) (MES-induced seizures [1]; 300 mg/kg (+), 4.0 h) | further results
Nc1nc(NC(=O)OCCSSCCOC(=O)c2cccnc2)nnc1-c1cccc(Cl)c1Cl [I-CA-MPD24] | active in both MES and scMET models | 3/3 | - (- = no activity or no toxicity at 300 mg/kg) | ++ (++ = activity or toxicity at 100 mg/kg) | - (- = no activity or no toxicity at 300 mg/kg) | non-toxic; also recorded: no or mild toxicity | - (- = no activity or no toxicity at 300 mg/kg) | - (- = no activity or no toxicity at 300 mg/kg) | 0/4 | 2/4 | 3/4 | 4/4 | – | – | – | – | MES (number of animal protected/number of animal tested) (MES-induced seizures [1]; [4]): 3/3; MES (number of animal protected/number of animal tested) (MES-induced seizures [1]; 100 mg/kg (++), 6 hours after dosing): (3/3)^m; MES (MES-induced seizures [1]; [5]): ++ (++ = activity or toxicity at 100 mg/kg); MES (MES-induced seizures [1]; at 6 hours after dosing (footnotes g, m)): ++ (++ = activity or toxicity at 100 mg/kg); activity in scMET (Test 1, in words) (clonic seizures): active in both MES and scMET models; ScMET (number of animal protected/number of animal tested) (clonic seizures; 4.0 h): (1/1)^l
CC(=O)Oc1ccccc1C(=O)O [Aspirin] | – | – | – | – | – | – | – | – | – | – | – | – | – | – | – | – | haemorrhagic lesions (area), Mean ± S.E.M. (mucosal damage; rat, in vivo, po, 100 mg/kg): 2.7 ± 0.9 mm^2; ulcer development (in words) (mucosal damage; rat, in vivo, po, 100 mg/kg): severe haemorrhagic lesions; gastrointestinal safety (summary in words) (mucosal damage; rats, oral, high equivalent doses compared to aspirin): caused severe ulcers
CCOC(=O)CC1(CNC(=O)OCCSSCCOC(=O)NC(=O)[C@H](CC)N2CCCC2=O)CCCCC1 [I-AA-MPD13] | – | – | - (- = no activity or no toxicity at 300 mg/kg) | - (- = no activity or no toxicity at 300 mg/kg) | + (+ = activity or toxicity at 300 mg/kg) | – | + (+ = activity or toxicity at 300 mg/kg) | - (- = no activity or no toxicity at 300 mg/kg) | – | – | – | – | - (- = no activity or no toxicity at 300 mg/kg) | 4/4 | – | – | ScMET (number of animal protected/number of animal tested) (clonic seizures; 0.5 h): 1/1
Nc1nc(NC(=O)OCCSSCCOC(=O)NCC2(CC(=O)O)CCCCC2)nnc1-c1cccc(Cl)c1Cl [I-AA-MPD11] | active in MES | 3/3 | – | – | - (- = no activity or no toxicity at 300 mg/kg) | no or mild toxicity | – | - (- = no activity or no toxicity at 300 mg/kg) | 0/4 | 2/4 | 1/4 | 4/4 | - (- = no activity or no toxicity at 300 mg/kg) | 1/4 | 1/1 | 1/1 | Toxicity (number of animals exhibiting toxicity/number of animals tested) (Neurological toxicity; 0.50 h): 0/4; Toxicity (number of animals exhibiting toxicity/number of animals tested) (Neurological toxicity; 1.00 h): 0/4; Toxicity (number of animals exhibiting toxicity/number of animals tested) (Neurological toxicity; 2.00 h): 0/4; Toxicity (number of animals exhibiting toxicity/number of animals tested) (Neurological toxicity; 4.00 h): 0/4
CCCC(CCC)C(=O)OCCSSCCOC(=O)Nc1nnc(-c2cccc(Cl)c2Cl)c(N)n1 [I-CA-MPD23] | active in MES | – | - (- = no activity or no toxicity at 300 mg/kg) | + (+ = activity or toxicity at 300 mg/kg) | - (- = no activity or no toxicity at 300 mg/kg) | no or mild toxicity | - (- = no activity or no toxicity at 300 mg/kg) | - (- = no activity or no toxicity at 300 mg/kg) | – | – | – | – | - (- = no activity or no toxicity at 300 mg/kg) | – | – | 1/3 | MES (number of animal protected/number of animal tested) (MES-induced seizures [1]; [4]): 1/3; MES (MES-induced seizures [1]; [5]): ++ (++ = activity or toxicity at 100 mg/kg); MES (number of animal protected/number of animal tested) (MES-induced seizures [3]; 150 mg/kg, 2.00 h): 4/4; MES (number of animal protected/number of animal tested) (MES-induced seizures [3]; 150 mg/kg, 4.00 h): 4/4; MES (number of animal protected/number of animal tested) (MES-induced seizures [3]; 150 mg/kg, 6.00 h): 4/4; MES (number of animal protected/number of animal tested) (MES-induced seizures [3]; 150 mg/kg, 8.00 h): 4/4
CCOC(=O)CC1(CNC(=O)OCCSSCCO[N+](=O)[O-])CCCCC1 [I-A1-NOPD1] | – | – | + (+ = activity or toxicity at 300 mg/kg) | - (- = no activity or no toxicity at 300 mg/kg) | – | – | – | - (- = no activity or no toxicity at 300 mg/kg) | – | – | – | – | - (- = no activity or no toxicity at 300 mg/kg) | 4/4 | 1/1 | – | MES (number of animal protected/number of animal tested) (MES-induced seizures [1]; 100 mg/kg (++), 0.25 hours after dosing): (1/3)^k; MES (MES-induced seizures [1]; at 0.25 hours after dosing (footnote k)): ++ (++ = activity or toxicity at 100 mg/kg); ScMET (number of animal protected/number of animal tested) (clonic seizures; 0.5 h): 1/1
CS(=O)(=O)NC(=O)OCCSSCCOC(=O)Nc1nnc(-c2cccc(Cl)c2Cl)c(N)n1 [I-A1-PD15] | active in MES | 2/3 | + (+ = activity or toxicity at 300 mg/kg) | – | - (- = no activity or no toxicity at 300 mg/kg) | no or mild toxicity | - (- = no activity or no toxicity at 300 mg/kg) | - (- = no activity or no toxicity at 300 mg/kg) | 0/4 | 1/4 | 3/4 | 4/4 | - (- = no activity or no toxicity at 300 mg/kg) | – | (1/1) | 1/1 | –
Cl.Nc1nc(NC(=O)OCCSSCCNC(=O)c2cccnc2)nnc1-c1cccc(Cl)c1Cl [I-CA-MPD25] | active in MES | 2/3 | + (+ = activity or toxicity at 300 mg/kg) | – | - (- = no activity or no toxicity at 300 mg/kg) | no or mild toxicity | - (- = no activity or no toxicity at 300 mg/kg) | - (- = no activity or no toxicity at 300 mg/kg) | 0/4 | 3/4 | 4/4 | 2/4 | - (- = no activity or no toxicity at 300 mg/kg) | – | (1/1) | 1/1 | –
CCOC(=O)CC1(CNC(=O)OCCSSCC(=O)OC)CCCCC1 [I-A1-PD5] | active in MES | – | + (+ = activity or toxicity at 300 mg/kg) | - (- = no activity or no toxicity at 300 mg/kg) | + (+ = activity or toxicity at 300 mg/kg) | no or mild toxicity | + (+ = activity or toxicity at 300 mg/kg) | - (- = no activity or no toxicity at 300 mg/kg) | – | – | – | – | - (- = no activity or no toxicity at 300 mg/kg) | 3/4 | – | – | –
